Laboratory results: patent US20230365592A1 (Agios Pharmaceuticals, Inc., priority 2022, published 2023)

Target: T1, human PAH with the R408W mutation (Homo sapiens, UniProt P00439, R408W)
T1 construct: expressed in transfected cells
T1 sequence (P00439 1-452 R408W): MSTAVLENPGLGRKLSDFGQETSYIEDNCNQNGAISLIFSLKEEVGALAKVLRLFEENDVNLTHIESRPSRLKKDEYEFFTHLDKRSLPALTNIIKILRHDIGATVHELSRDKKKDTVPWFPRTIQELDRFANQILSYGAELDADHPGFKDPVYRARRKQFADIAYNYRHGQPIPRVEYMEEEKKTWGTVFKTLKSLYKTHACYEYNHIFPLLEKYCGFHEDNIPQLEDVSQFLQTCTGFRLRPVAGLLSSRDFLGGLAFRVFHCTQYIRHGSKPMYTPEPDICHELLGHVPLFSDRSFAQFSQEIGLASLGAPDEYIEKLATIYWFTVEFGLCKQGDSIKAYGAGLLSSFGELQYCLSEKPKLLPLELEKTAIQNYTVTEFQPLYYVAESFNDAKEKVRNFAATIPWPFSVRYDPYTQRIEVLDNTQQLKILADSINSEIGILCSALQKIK
Experiment: Cell Based Phenylalanine Flux Assay;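 note: after compound treatment, cells received sepiapterin plus isotope-labelled Phenylalanine for 4 hours, then labelled Tyrosine in the medium was quantified, 10-point 2-fold dilution series run in duplicate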
Details: A375 cells expressing human R408W PAH; 24 hrs compound incubation; 13C-Tyrosine by LC-MS; average where tested multiple times; read-out: AC50

SMILES	AC50 [nM]
Cc1cccc2cc([C@H]3c4nc[nH]c4CCN3C(=O)c3oc([C@@H](C)O)nc3C(F)F)nn12 [Example 1165, (4-(difluoromethyl)-2-((R)-1-hydroxyethyl)oxazol-5-yl)((R)-4-(7-methylpyrazolo[1,5-a]pyridin-2-yl)-6,7-dihydro-1H-imidazo[4,5-c]pyridin-5(4H)-yl)methanone]	1000 to 5000
COc1cccn2nc([C@@H]3c4nc[nH]c4CCN3C(=O)c3cnco3)cc12 [Example 1166, (S)-(4-(4-methoxypyrazolo[1,5-a]pyridin-2-yl)-6,7-dihydro-1H-imidazo[4,5-c]pyridin-5(4H)-yl)(oxazol-5-yl)methanone]	500 to 1000
COc1cccn2nc([C@@H]3c4nc[nH]c4CCN3C(=O)c3nnc(C4CC4)o3)cc12 [Example 1168, (S)-(5-cyclopropyl-1,3,4-oxadiazol-2-yl)(4-(4-methoxypyrazolo[1,5-a]pyridin-2-yl)-6,7-dihydro-1H-imidazo[4,5-c]pyridin-5(4H)-yl)methanone]	500 to 1000
COc1cccn2nc([C@H]3c4nc[nH]c4CCN3C(=O)c3nnc(C4CC4)o3)cc12 [Example 1169, (R)-(5-cyclopropyl-1,3,4-oxadiazol-2-yl)(4-(4-methoxypyrazolo[1,5-a]pyridin-2-yl)6,7-dihydro-1H-imidazo[4,5-c]pyridin-5(4H)-yl)methanone]	> 5000
Cc1ccc2cc([C@@H]3c4nc[nH]c4CCN3C(=O)c3nnc(C(C)(C)F)o3)nn2c1 [Example 1171, (S)-(5-(2-fluoropropan-2-yl)-1,3,4-oxadiazol-2-yl)(4-(6-methylpyrazolo[1,5-a]pyridin-2-yl)-6,7-dihydro-1H-imidazo[4,5-c]pyridin-5(4H)-yl)methanone]	500 to 1000
O=C(c1ocnc1C(F)(F)F)N1CCc2[nH]cnc2[C@H]1c1cc2cccc(Cl)n2n1 [Example 1172, (S)-(4-(7-chloropyrazolo[1,5-a]pyridin-2-yl)-6,7-dihydro-1H-imidazo[4,5-c]pyridin-5(4H)-yl)(4-(trifluoromethyl)oxazol-5-yl)methanone]	< 500
Cc1ncoc1C(=O)N1CCc2[nH]cnc2[C@H]1c1cc2cccc(Cl)n2n1 [Example 1174, (S)-(4-(7-chloropyrazolo[1,5-a]pyridin-2-yl)-6,7-dihydro-1H-imidazo[4,5-c]pyridin-5(4H)-yl)(4-methyloxazol-5-yl)methanone]	500 to 1000
O=C(c1ocnc1C(F)(F)F)N1CCc2[nH]cnc2[C@H]1c1cc2cccc(C(F)(F)F)n2n1 [Example 1176, (S)-(4-(trifluoromethyl)oxazol-5-yl)(4-(7-(trifluoromethyl)pyrazolo[1,5-a]pyridin-2-yl)-6,7-dihydro-1H-imidazo[4,5-c]pyridin-5(4H)-yl)methanone]	< 500
CC(C)(O)c1nc(C(F)(F)F)c(C(=O)N2CCc3[nH]cnc3[C@H]2c2cc3cccc(C(F)(F)F)n3n2)o1 [Example 1178, (S)-(2-(2-hydroxypropan-2-yl)-4-(trifluoromethyl)oxazol-5-yl)(4-(7-(trifluoromethyl)pyrazolo[1,5-a]pyridin-2-yl)-6,7-dihydro-1H-imidazo[4,5-c]pyridin-5(4H)-yl)methanone]	< 500
C[C@@H](O)c1nc(C(F)F)c(C(=O)N2CCc3[nH]cnc3[C@H]2c2cc3cccc(C(F)(F)F)n3n2)o1 [Example 1180, (4-(difluoromethyl)-2-((R)-1-hydroxyethyl)oxazol-5-yl)((S)4-(7-(trifluoromethyl)pyrazolo[1,5-a]pyridin-2-yl)-6,7-dihydro-1H-imidazo[4,5-c]pyridin-5(4H)-yl)methanone]	500 to 1000
COc1cccn2nc([C@H]3c4nc[nH]c4CCN3C(=O)c3nnc(C(C)(C)C)o3)cc12 [Example 1182, (R)-(5-(tert-butyl)-1,3,4-oxadiazol-2-yl)(4-(4-methoxypyrazolo[1,5-a]pyridin-2-yl)-6,7-dihydro-1H-imidazo[4,5-c]pyridin-5(4H)-yl)methanone]	1000 to 5000
COc1cccn2nc([C@@H]3c4nc[nH]c4CCN3C(=O)c3nnc(C(C)(C)C)o3)cc12 [Example 1183, (S)-(5-(tert-butyl)-1,3,4-oxadiazol-2-yl)(4-(4-methoxypyrazolo[1,5-a]pyridin-2-yl)-6,7-dihydro-1H-imidazo[4,5-c]pyridin-5(4H)-yl)methanone]	500 to 1000
Cc1ccc2cc([C@H]3c4nc[nH]c4CCN3C(=O)c3cnco3)nn2c1 [Example 1186, (R)-(4-(6-methylpyrazolo[1,5-a]pyridin-2-yl)-6,7-dihydro-1H-imidazolo[4,5-c]pyridin-5(4H)-yl)(oxazol-5-yl)methanone]	500 to 1000
Cc1ccc2cc([C@@H]3c4nc[nH]c4CCN3C(=O)c3cnco3)nn2c1 [Example 1187, (S)-(4-(6-methylpyrazolo[1,5-a]pyridin-2-yl)-6,7-dihydro-1H-imidazo[4,5-c]pyridin-5(4H)-yl)(oxazol-5-yl)methanone]	1000 to 5000
Cc1c(-c2nnc(C(=O)N3CCc4[nH]cnc4[C@@H]3c3cc4cccc(C)n4n3)o2)cnn1C [Example 1189, (R)-(5-(1,5-dimethyl-1H-pyrazol-4-yl)-1,3,4-oxadiazol-2-yl)(4-(7-methylpyrazolo[1,5-a]pyridin-2-yl)-6,7-dihydro-1H-imidazo[4,5-c]pyridin-5(4H)-yl)methanone]	1000 to 5000
Cc1c(-c2nnc(C(=O)N3CCc4[nH]cnc4[C@@H]3c3cc4cccc(C(F)(F)F)n4n3)o2)cnn1C [Example 1191, (R)-(5-(1,5-dimethyl-1H-pyrazol-4-yl)-1,3,4-oxadiazol-2-yl)(4-(7-(trifluoromethyl)pyrazolo[1,5-a]pyridin-2-yl)-6,7-dihydro-1H-imidazo[4,5-c]pyridin-5(4H)-yl)methanone]	1000 to 5000
CC(C)(O)c1nc(C(F)(F)F)c(C(=O)N2CCc3[nH]cnc3[C@H]2c2cc3cccc(Cl)n3n2)o1 [Example 1192, (S)-(4-(7-chloropyrazolo[1,5-a]pyridin-2-yl)-6,7-dihydro-1H-imidazo[4,5-c]pyridin-5(4H)-yl)(2-(2-hydroxypropan-2-yl)-4-(trifluoromethyl)oxazol-5-yl)methanone]	< 500
CC(C)(O)c1nc(C(F)(F)F)c(C(=O)N2CCc3[nH]cnc3[C@@H]2c2cc3cccc(Cl)n3n2)o1 [Example 1193, (R)-(4-(7-chloropyrazolo[1,5-a]pyridin-2-yl)-6,7-dihydro-1H-imidazo[4,5-c]pyridin-5(4H)-yl)(2-(2-hydroxypropan-2-yl)-4-(trifluoromethyl)oxazol-5-yl)methanone]	1000 to 5000
C[C@H](O)c1nc(C(F)F)c(C(=O)N2CCc3[nH]cnc3[C@@H]2c2cc3cccc(Cl)n3n2)o1 [Example 1194, ((R)-4-(7-chloropyrazolo[1,5-a]pyridin-2-yl)-6,7-dihydro-1H-imidazo[4,5-c]pyridin-5(4H)-yl)(4-(difluoromethyl)-2-((S)-1-hydroxyethyl)oxazol-5-yl)methanone]	1000 to 5000
C[C@H](O)c1nc(C(F)F)c(C(=O)N2CCc3[nH]cnc3[C@H]2c2cc3cccc(Cl)n3n2)o1 [Example 1195, ((S)-4-(7-chloropyrazolo[1,5-a]pyridin-2-yl)-6,7-dihydro-1H-imidazo[4,5-c]pyridin-5(4H)-yl)(4-(difluoromethyl)-2-((S)-1-hydroxyethyl)oxazol-5-yl)methanone]	500 to 1000
C[C@@H](O)c1nc(C(F)F)c(C(=O)N2CCc3[nH]cnc3[C@@H]2c2cc3cccc(Cl)n3n2)o1 [Example 1197, ((R)-4-(7-chloropyrazolo[1,5-a]pyridin-2-yl)-6,7-dihydro-1H-imidazo[4,5-c]pyridin-5(4H)-yl)(4-(difluoromethyl)-2-((R)-1-hydroxyethyl)oxazol-5-yl)methanone]	1000 to 5000
C[C@H](O)c1nc(C(F)F)c(C(=O)N2CCc3[nH]cnc3[C@H]2c2cc3cccc(C(F)(F)F)n3n2)o1 [Example 1200, (4-(difluoromethyl)-2-((S)-1-hydroxyethyl)oxazol-5-yl)((S)-4-(7-(trifluoromethyl)pyrazolo[1,5-a]pyridin-2-yl)-6,7-dihydro-1H-imidazo[4,5-c]pyridin-5(4H)-yl)methanone]	500 to 1000
C[C@H](O)c1nc(C(F)F)c(C(=O)N2CCc3[nH]cnc3[C@@H]2c2cc3cccc(C(F)(F)F)n3n2)o1 [Example 1201, (4-(difluoromethyl)-2-((S)-1-hydroxyethyl)oxazol-5-yl)((R)-4-(7-(trifluoromethyl)pyrazolo[1,5-a]pyridin-2-yl)-6,7-dihydro-1H-imidazo[4,5-c]pyridin-5(4H)-yl)methanone]	500 to 1000
O=C(c1ocnc1C(F)F)N1CCc2[nH]cnc2[C@H]1c1cc2cccc(F)n2n1 [Example 1202, (S)-(4-(difluoromethyl)oxazol-5-yl)(4-(7-fluoropyrazolo[1,5-a]pyridin-2-yl)-6,7-dihydro-1H-imidazo[4,5-c]pyridin-5(4H)-yl)methanone]	< 500
O=C(c1ocnc1C(F)F)N1CCc2[nH]cnc2[C@@H]1c1cc2cccc(F)n2n1 [Example 1203, (R)-(4-(difluoromethyl)oxazol-5-yl)(4-(7-fluoropyrazolo[1,5-a]pyridin-2-yl)-6,7-dihydro-1H-imidazo[4,5-c]pyridin-5(4H)-yl)methanone]	1000 to 5000
Cc1c(-c2nnc(C(=O)N3CCc4[nH]cnc4[C@H]3c3cc4c(C(F)(F)F)cccn4n3)o2)cnn1C [Example 1204, (S)-(5-(1,5-dimethyl-1H-pyrazol-4-yl)-1,3,4-oxadiazol-2-yl)(4-(4-(trifluoromethyl)pyrazolo[1,5-a]pyridin-2-yl)-6,7-dihydro-1H-imidazo[4,5-c]pyridin-5(4H)-yl)methanone]	< 500
